In US10646488B2 (Araxes Pharma LLC, priority 2016, dated 2020):

Target: T1, KRAS G12C 1-169, his-tagged protein, GDP-loaded (Homo sapiens, UniProt P01116, G12C)
T1 construct: KRAS G12C 1-169, his-tagged protein, GDP-loaded
Experiment: Covalent binding (% modification) to KRAS G12C by mass spectrometry; note: test concentration or dose not given here
Conditions: covalent binding to KRAS G12C after a three minute incubation period

Compound: C=CC(=O)N1C[C@H](C)N(c2nc(N3CC4(CCCN4C)C3)nc3c(F)c(-c4c(C)ccc5[nH]ncc45)c(Cl)cc23)C[C@H]1C [Compound 186, 1-((2R,5S)-4-(6-chloro-8-fluoro-7-(5-methyl-1H-indazol-4-yl)-2-(5-methyl-2,5-diazaspiro[3.4]octan-2-yl)quinazolin-4-yl)-2,5-dimethyl-piperazin-1-yl) prop-2-en-1-one]
- Binding %: ++ (++ indicates binding activity from 50 to 90%)

Compound: C=CC(=O)N1C[C@H](C)N(c2nc(N3CC(N(C)C)C3)nc3c(F)c(-c4cc(Cl)ccc4F)c(Cl)cc23)C[C@H]1C [Compound 160, 1-((2R,5S)-4-(6-chloro-7-(5-chloro-2-fluoro-phenyl)-2-(3-(dimethylamino)azetidin-1-yl)-8-fluoroquinazolin-4-yl)-2,5-dimethyl-piperazin-1-yl) prop-2-en-1-one]
- Binding %: ++ (++ indicates binding activity from 50 to 90%)

Compound: C=CC(=O)N1C[C@H](C)N(c2nc(N3CC(N(C)CC)C3)nc3c(F)c(-c4c(O)cccc4F)c(Cl)cc23)C[C@H]1C (atropisomer, axis not shown) [Compound 154, 1-((2R,5S)-4-(6-chloro-2-(3-(ethyl(methyl)amino)azetidin-1-yl)-8-fluoro-7-((S)-2-fluoro-6-hydroxyphenyl)quinazolin-4-yl)-2,5-dimethyl-piperazin-1-yl) prop-2-en-1-one]
- Binding %: +++ (+++ indicates binding activity greater than 90%)

Compound: C=CC(=O)N1C[C@H](C)N(c2nc(N3CC4(COC4)C3)nc3c(F)c(-c4c(O)cccc4F)c(Cl)cc23)C[C@H]1C [Compound 192, 1-((2R,5S)-4-(6-chloro-8-fluoro-7-(2-fluoro-6-hydroxyphenyl)-2-(2-oxa-6-azaspiro[3.3]heptan-6-yl)quinazolin-4-yl)-2,5-dimethyl-piperazin-1-yl) prop-2-en-1-one]
- Binding %: ++ (++ indicates binding activity from 50 to 90%)

Compound: C=CC(=O)N1CCN(c2nc(N3CC(C)(N(C)C)C3)nc3c(F)c(-c4c(O)cccc4F)c(Cl)cc23)C[C@H]1C [Compound 163, 1-((2R)-4-(6-chloro-2-(3-(dimethylamino)-3-methylazetidin-1-yl)-8-fluoro-7-(2-fluoro-6-hydroxyphenyl)quinazolin-4-yl)-2-methyl-piperazin-1-yl) prop-2-en-1-one]
- Binding %: ++ (++ indicates binding activity from 50 to 90%)

Compound: C=CC(=O)N1C[C@H](C)N(c2nc(N3CC(N(C)CC(F)F)C3)nc3c(F)c(-c4c(O)cccc4F)c(Cl)cc23)C[C@H]1C [Compound 107, 1-((2R,5S)-4-(6-chloro-2-(3-((2,2-difluoroethyl) (methyl)amino)azetidin-1-yl)-8-fluoro-7-(2-fluoro-6-hydroxyphenyl)quinazolin-4-yl)-2,5-dimethyl-piperazin-1-yl) prop-2-en-1-one]
- Binding %: ++ (++ indicates binding activity from 50 to 90%)

Compound: C=CC(=O)N1C[C@H](C)N(c2nc(N3CC(N(C)C)C3)nc3c(F)c(-c4c(F)cccc4OC(C)=O)c(Cl)cc23)C[C@H]1C [Compound 214, 2-(4-((2S,5R)-4-acryloyl-2,5-dimethylpiperazin-1-yl)-6-chloro-2-(3-(dimethylamino)azetidin-1-yl)-8-fluoroquinazolin-7-yl)-3-fluoro-phenyl acetate]
- Binding %: + (+ indicates binding activity greater than 0% and up to 50%)

Compound: [2H]C([2H])([2H])N(C1CN(c2nc(N3C[C@@H](C)N(C(=O)C=C)C[C@@H]3C)c3cc(Cl)c(-c4c(C)ccc5[nH]ncc45)c(F)c3n2)C1)C([2H])([2H])[2H] (atropisomer, axis not shown) [Compound 226, 1-((2R,5S)-4-(6-chloro-2-(3-(bis(triduetero-methyl)amino)azetidin-1-yl)-8-fluoro-7-((R)-5-methyl-1H-indazol-4-yl)quinazolin-4-yl)-2,5-dimethyl-piperazin-1-yl) prop-2-en-1-one]
- Binding %: +++ (+++ indicates binding activity greater than 90%)
